Reference: patent US6979686B1, “Substituted pyrazoles as p38 kinase inhibitors” (Pharmacia Corporation, priority 2001, dated 2005)
Read-outs that look alike come from different tables or passages of the source.

What was measured:
human p38 kinase alpha = biological target: T1, human p38 kinase alpha (Homo sapiens, UniProt Q16539); experiment: p38 kinase in vitro assay, phosphorylation of biotinylated PHAS-I with 32P-ATP; format: biochemical; details: for inhibition at 1 µM: read-out: P38 alpha kinase % inhib @ conc.
T1 construct: GST (N, cleaved yes); made in house; host or cells: E. coli DH10B
T1 sequence (Q16539 whole entry): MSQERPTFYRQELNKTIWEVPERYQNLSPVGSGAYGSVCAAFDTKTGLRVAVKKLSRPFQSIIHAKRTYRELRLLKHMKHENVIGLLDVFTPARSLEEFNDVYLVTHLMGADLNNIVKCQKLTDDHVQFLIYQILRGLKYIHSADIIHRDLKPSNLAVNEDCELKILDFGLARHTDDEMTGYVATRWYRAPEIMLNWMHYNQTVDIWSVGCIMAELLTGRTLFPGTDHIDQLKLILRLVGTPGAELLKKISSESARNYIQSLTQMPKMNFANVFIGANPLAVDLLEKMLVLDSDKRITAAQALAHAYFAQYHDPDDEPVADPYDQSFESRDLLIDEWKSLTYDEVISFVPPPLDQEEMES

[1] = system: TNF-α, U937 human histiocytic lymphoma cell line; experiment: LPS stimulation of TNF production by U937 cells; format: cell-based; details: for inhibition at 10 µM: U-937, @ 10.0 uM; for inhibition at 10 µM / inhibition at 1 µM: read-out: U937 Cell % inhib @ conc.; for inhibition at 1 µM: U-937, @ 1.0 uM
Summary of the method: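 U937 cells differentiated 24 h with 20 ng/ml PMA, rested 24-48 h, used at 2 million cells/ml. Compounds in 0.1% DMSO final; LPS (E. coli, 100 ng/ml final) stimulation for 4 h at 37° C. Released TNF-α measured by ELISA; IC50 (μM).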

[2] = @ 1.0 uM, TNF production, U937 cells stimulated with LPS
[3] = in vitro P38-alpha kinase inhibition, read-out: P38 alpha kinase IC50
[4] = Homo sapiens, U-937, TNF production, human U937 cells stimulated with LPS, read-out: U937 Cell IC50
[5] = TNF production, human U937 cells stimulated with LPS, read-out: U937 Cell IC50
[6] = @ 10.0 uM, TNF production, LPS-stimulated U937 cells
[7] = Homo sapiens, TNF production, U937 cells stimulated with LPS
[8] = in vitro P38-alpha kinase, read-out: P38 alpha kinase IC50
[9] = Homo sapiens, TNF production, LPS-stimulated U937 cells
[10] = @ 1.0 uM, TNF production in human U937 cells stimulated with LPS
[11] = TNF production, U937 cells stimulated with LPS, read-out: U937 Cell IC50, uM or % inhib @ conc. (uM): IC50
[12] = @ 10.0 uM, TNF production, U937 cells stimulated with LPS

## C=Cc1ccc(S(=O)(=O)NCc2[nH]nc(-c3ccc(F)cc3)c2-c2ccncc2)cc1 [Example B-0140]
Human p38 kinase alpha; @ 10.0 uM
  P38 alpha kinase % inhib @ conc.: 67% @
[1]; [2]
  U937 Cell % inhib @ conc.: 9.0% @

## O=C(NCCc1[nH]nc(-c2ccc(F)cc2)c1-c1ccncc1)NC(=O)c1ccccc1 [Example B-0934]
Human p38 kinase alpha; @ 1.0 uM
  P38 alpha kinase % inhib @ conc. (uM): 67.0% @
[1]; [2]
  U937 Cell % inhib @ conc. (uM): 36.0% @

## O=C(NC(Cc1ccccc1)c1[nH]nc(-c2ccc(F)cc2)c1-c1ccncc1)c1cccc(Br)c1 (centres unmarked) [Example B-0806]
Human p38 kinase alpha; [3]
  IC50: 3280 nM
[1]; [4]
  IC50: > 1 µM

## CNC(=O)CCC(NC(=O)c1cccc(Br)c1)c1[nH]nc(-c2ccc(F)cc2)c1-c1ccncc1 (centres unmarked) [Example B-0867]
Human p38 kinase alpha; [3]
  IC50: 620 nM
[1]; [4]
  IC50: > 1 µM

## CC(=O)OC(C)C(=O)NC(Cc1ccccc1)c1[nH]nc(-c2ccc(F)cc2)c1-c1ccncc1 (centres unmarked) [Example B-0809]
Human p38 kinase alpha; [3]
  IC50: 1220 nM
[1]; [2]
  U937 Cell % inhib @ conc. (uM): 7.0% @

## CCN1CCC(N(CC)C(=O)Cn2nc(-c3ccc(F)cc3)c(-c3ccncc3)c2C)C1 (centres unmarked) [Example B-2369]
Human p38 kinase alpha; @ 10.0 uM
  P38 alpha kinase % inhib @ conc.: 32.0% @
[1]; [5]
  IC50: > 10 µM

## Cc1c(-c2ccncc2)c(-c2ccc(F)cc2)nn1CC(=O)N1CCCN(C)CC1 [Example B-2382]
Human p38 kinase alpha; @ 10.0 uM
  P38 alpha kinase % inhib @ conc.: 51.0% @
[1]; [6]
  U937 Cell % inhib @ conc.: 24.0% @

## O=C(NCc1[nH]nc(-c2ccc(F)cc2)c1-c1ccncc1)c1c(Cl)cc(Cl)cc1Cl [Example B-0019]
Human p38 kinase alpha; @ 1.0 uM
  inhibition at 1 µM: 84%
[1]; [7]
  inhibition at 10 µM: 100%

## O=C(NCCCc1[nH]nc(-c2ccc(F)cc2)c1-c1ccncc1)NCCc1ccccn1 [Example B-1314]
Human p38 kinase alpha; [8]
  IC50: 45 nM
[1]; [9]
  inhibition at 1 µM: 24%

## Cc1cccc(C(=O)NC(C)c2[nH]nc(-c3ccc(F)cc3)c2-c2ccncc2)c1 (centres unmarked) [Example B-0692]
Human p38 kinase alpha; [3]
  IC50: 380 nM
[1]; [10]
  U937 Cell % inhib @ conc. (uM): 29.0% @

## CCOC(=O)CC[C@H](NC(=O)Cn1nc(-c2ccc(F)cc2)c(-c2ccncc2)c1C)C(=O)OCC [Example B-2360]
Human p38 kinase alpha; @ 10.0 uM
  P38 alpha kinase % inhib @ conc.: 45.0% @
[1]; [5]
  IC50: > 10 µM

## Cc1ccc(NC(=O)Cn2nc(-c3ccc(F)cc3)c(-c3ccncc3)c2C)cc1 [Example B-2423]
Human p38 kinase alpha; @ 10.0 uM
  P38 alpha kinase IC50, uM or % inhib @ conc. (uM): % inhib: 85.0% @
[1]; [11]
  IC50: > 10 µM

## O=S(=O)(NCCCc1[nH]nc(-c2ccc(F)cc2)c1-c1ccncc1)c1ccccc1Br [Example B-1259]
Human p38 kinase alpha; [8]
  IC50: < 100 nM
[1]; [4]
  IC50: 0.48 µM

## C[C@@H](NC(=O)NCCc1[nH]nc(-c2ccc(F)cc2)c1-c1ccncc1)c1ccccc1 [Example B-1045]
Human p38 kinase alpha; @ 1.0 uM
  P38 alpha kinase % inhib @ conc. (uM): 78.0% @
[1]; [2]
  U937 Cell % inhib @ conc. (uM): 25.0% @

## O=C(NCc1[nH]nc(-c2ccc(F)cc2)c1-c1ccncc1)[C@@H]1CCCN1 [B0194]
Human p38 kinase alpha; [8]
  IC50: 1310 nM
[1]; [2]
  U937 Cell % inhib @ conc.: 22% @

## CCN(Cc1ccncc1)C(=O)Cn1nc(-c2ccc(F)cc2)c(-c2ccncc2)c1C [Example B-2381]
Human p38 kinase alpha; @ 100.0 uM
  P38 alpha kinase % inhib @ conc.: 68% @
[1]; [6]
  U937 Cell % inhib @ conc.: 2.0% @

## O=C(NCc1[nH]nc(-c2ccc(F)cc2)c1-c1ccncc1)c1ccc([N+](=O)[O-])o1 [Example B-0031]
Human p38 kinase alpha; @ 1.0 uM
  inhibition at 1 µM: 94%
[1]; [7]
  inhibition at 10 µM: 100%

## CC(=O)NCCNC(=O)NCCCc1[nH]nc(-c2ccc(F)cc2)c1-c1ccncc1 [Example B-1305]
Human p38 kinase alpha; [8]
  IC50: 640 nM
[1]; @ 1.0 uM, TNF production, LPS-stimulated U937 cells
  U937 Cell % inhib @ conc.: 9.0% @

## CC(NC(=O)N1CCCC1)c1[nH]nc(-c2ccc(F)cc2)c1-c1ccncc1 (centres unmarked) [Example B-0581]
Human p38 kinase alpha; [3]
  IC50: 260 nM
[1]; Homo sapiens, U-937, TNF production in human U937 cells stimulated with LPS, read-out: U937 Cell IC50
  IC50: 2.17 µM

## O=C(NC(Cc1ccccc1)c1[nH]nc(-c2ccc(F)cc2)c1-c1ccncc1)C1CCCN1 (centres unmarked) [Example B-0795]
Human p38 kinase alpha; [3]
  IC50: 1900 nM
[1]; [10]
  U937 Cell % inhib @ conc. (uM): 11.0% @

## CC(NC(=O)NC(C)c1[nH]nc(-c2ccc(F)cc2)c1-c1ccncc1)c1ccccc1 (centres unmarked) [Example B-0591]
Human p38 kinase alpha; [3]
  IC50: 3590 nM
[1]; [10]
  U937 Cell % inhib @ conc. (uM): 29.0% @

## O=C(NC(Cc1ccccc1)c1[nH]nc(-c2ccc(F)cc2)c1-c1ccncc1)c1ccccc1C(F)(F)F (centres unmarked) [Example B-0812]
Human p38 kinase alpha; [3]
  IC50: 2120 nM
[1]; [4]
  IC50: > 1 µM

## O=C(NC(Cc1ccccc1)c1[nH]nc(-c2ccc(F)cc2)c1-c1ccncc1)C1CC1 (centres unmarked) [Example B-0805]
Human p38 kinase alpha; [3]
  IC50: 710 nM
[1]; [4]
  IC50: > 1 µM

## O=C(NCCCc1[nH]nc(-c2ccc(F)cc2)c1-c1ccncc1)NCCCN1CCCC1 [Example B-1318]
Human p38 kinase alpha; [8]
  IC50: < 100 nM
[1]; [9]
  inhibition at 1 µM: 1%

## Cc1c(-c2ccncc2)c(-c2ccc(F)cc2)nn1CC(=O)N(C)CCCC1c2ccccc2CCc2ccccc21 [Example B-2387]
Human p38 kinase alpha; @ 100.0 uM
  P38 alpha kinase IC50, uM or % inhib @ conc. (uM): % inhib: 50.0% @
[1]; [11]
  IC50: > 10 µM

## O=S(=O)(c1cccc(C(F)(F)F)c1)N1CCC(c2[nH]nc(-c3ccc(F)cc3)c2-c2ccncc2)CC1 [Example B-1468]
Human p38 kinase alpha; [8]
  IC50: 1610 nM
[1]; [9]
  inhibition at 1 µM: 10%

## CCOC(=O)c1cccc(NC(=O)NCCc2[nH]nc(-c3ccc(F)cc3)c2-c2ccncc2)c1 [Example B-0942]
Human p38 kinase alpha; @ 1.0 uM
  P38 alpha kinase % inhib @ conc. (uM): 82.0% @
[1]; [2]
  U937 Cell % inhib @ conc. (uM): 2.0% @

## CCCCCCCCOc1cccc(NC(=O)Cn2nc(-c3ccc(F)cc3)c(-c3ccncc3)c2C)c1 [Example B-2442]
Human p38 kinase alpha; @ 10.0 uM
  P38 alpha kinase IC50, uM or % inhib @ conc. (uM): % inhib: 86.0% @
[1]; [11]
  IC50: > 10 µM

## CC(=O)OC(C)C(=O)NC(Cc1ccccc1)c1[nH]nc(-c2ccc(F)cc2)c1-c1ccncc1 (centres unmarked) [Example B-0841]
Human p38 kinase alpha; [3]
  IC50: 320 nM
[1]; [2]
  U937 Cell % inhib @ conc. (uM): 36.0% @

## Cc1c(-c2ccncc2)c(-c2ccc(F)cc2)nn1CC(=O)Nc1ccc(CCC(=O)c2cccnc2)cc1 [Example B-2445]
Human p38 kinase alpha; @ 10.0 uM
  P38 alpha kinase IC50, uM or % inhib @ conc. (uM): % inhib: 94.0% @
[1]; [12]
  U937 Cell IC50, uM or % inhib @ conc. (uM): % inhib: 15.0% @

## CC(C)=CC(=O)NCc1[nH]nc(-c2ccc(F)cc2)c1-c1ccncc1 [Example B-0027]
Human p38 kinase alpha; @ 1.0 uM
  inhibition at 1 µM: 94%
[1]; [4]
  IC50: 11 µM

## O=C(c1ccc(Br)cc1)N1CCC(c2[nH]nc(-c3ccc(F)cc3)c2-c2ccncc2)CC1 [Example B-1388]
Human p38 kinase alpha; [8]
  IC50: 570 nM
[1]; [4]
  IC50: 1.38 µM

## Cc1[nH]nc(-c2ccc(C(F)(F)F)cc2)c1-c1ccncc1 [Example A-48]
Human p38 kinase alpha; activated human p38 kinase alpha, PHAS-I substrate, 50 μM unlabeled ATP, read-out: p38 kinase IC50
  IC50: 1800 nM
[1]; Table 5, LPS-stimulated U937 cells, TNF-α, read-out: U937 Cell Assay IC50
  IC50: 0.522 µM

## CC(C)=CC(=O)NCCc1[nH]nc(-c2ccc(F)cc2)c1-c1ccncc1 [Example B-0998]
Human p38 kinase alpha; @ 1.0 uM
  P38 alpha kinase % inhib @ conc. (uM): 67.0% @
[1]; [2]
  U937 Cell % inhib @ conc. (uM): 25.0% @

## Cc1c(-c2ccncc2)c(-c2ccc(F)cc2)nn1CC(=O)Nc1ccccc1OC(F)(F)F [Example B-2453]
Human p38 kinase alpha; @ 10.0 uM
  P38 alpha kinase IC50, uM or % inhib @ conc. (uM): % inhib: 91.0% @
[1]; [11]
  IC50: > 10 µM

## O=S(=O)(c1ccc(-c2ccon2)s1)N1CCC(c2[nH]nc(-c3ccc(F)cc3)c2-c2ccncc2)CC1 [Example B-1440]
Human p38 kinase alpha; [8]
  IC50: 870 nM
[1]; [9]
  inhibition at 1 µM: 3%

## Cc1ccc(S(=O)(=O)NCCc2[nH]nc(-c3ccc(F)cc3)c2-c2ccncc2)cc1 [Example B-1027]
Human p38 kinase alpha; @ 1.0 uM
  P38 alpha kinase % inhib @ conc. (uM): 58.0% @
[1]; [2]
  U937 Cell % inhib @ conc. (uM): 18.0% @

## O=S(=O)(NCc1[nH]nc(-c2ccc(F)cc2)c1-c1ccncc1)c1ccc(OC(F)F)cc1 [Example B-0143]
Human p38 kinase alpha; @ 1.0 uM
  P38 alpha kinase % inhib @ conc.: 42.0% @
[1]; [5]
  IC50: 3.63 µM

## Cc1ccc(C(=O)NC(Cc2ccccc2)c2[nH]nc(-c3ccc(F)cc3)c2-c2ccncc2)cc1 (centres unmarked) [Example B-0818]
Human p38 kinase alpha; [3]
  IC50: 4970 nM
[1]; [4]
  IC50: > 1 µM

## Cn1cnc(S(=O)(=O)N2CCC(c3[nH]nc(-c4ccc(F)cc4)c3-c3ccncc3)CC2)c1 [Example B-1434]
Human p38 kinase alpha; [8]
  IC50: 190 nM
[1]; [9]
  inhibition at 1 µM: 28%

## CCOC(=O)C(Cc1ccccc1)NC(=O)Cn1nc(-c2ccc(F)cc2)c(-c2ccncc2)c1C (centres unmarked) [Example B-2351]
Human p38 kinase alpha; @ 10.0 uM
  P38 alpha kinase % inhib @ conc.: 77.0% @
[1]; [6]
  U937 Cell % inhib @ conc.: 1.0% @

## CC(NC(=O)Nc1cccc(F)c1)c1[nH]nc(-c2ccc(F)cc2)c1-c1ccncc1 (centres unmarked) [Example B-0595]
Human p38 kinase alpha; [3]
  IC50: 2420 nM
[1]; [10]
  U937 Cell % inhib @ conc. (uM): 22.0% @

## COC(=O)C1CN1C(=O)Cn1nc(-c2ccc(F)cc2)c(-c2ccncc2)c1C (centres unmarked) [Example B-2406]
Human p38 kinase alpha; @ 10.0 uM
  P38 alpha kinase IC50, uM or % inhib @ conc. (uM): % inhib: 45.0% @
[1]; [12]
  U937 Cell IC50, uM or % inhib @ conc. (uM): % inhib: 24.0% @
